Measured values: patent US20210353573A1, “A SOFT-GEL CAPSULE FORMULATION, METHOD OF MANUFACTURE AND USE THEREOF” (Chanelle Pharmaceuticals Manufacturing Ltd., priority 2018, published 2021)

Assay: Excipient compatibility studies (glycerol)
Assay type: physicochemical
Conditions: mixture with glycerol
Description: Various studies were carried out to determine an appropriate capsule shell formulation.

Substance: ibuprofen lysine [ibuprofen lysinate]
- Compatibility with glycerol (colour change indicating degradation): turned brownish
